Laboratory results reported in ChEMBL document CHEMBL5291721, “A preclinical secondary pharmacology resource illuminates target-adverse drug reaction associations of marketed drugs” (Nat Commun, 2023).

Tests used:
[1] = target: T1, Muscarinic acetylcholine receptor M1 (Homo sapiens, UniProt P11229); type: functional, cell-based
T1 sequence (P11229 whole entry): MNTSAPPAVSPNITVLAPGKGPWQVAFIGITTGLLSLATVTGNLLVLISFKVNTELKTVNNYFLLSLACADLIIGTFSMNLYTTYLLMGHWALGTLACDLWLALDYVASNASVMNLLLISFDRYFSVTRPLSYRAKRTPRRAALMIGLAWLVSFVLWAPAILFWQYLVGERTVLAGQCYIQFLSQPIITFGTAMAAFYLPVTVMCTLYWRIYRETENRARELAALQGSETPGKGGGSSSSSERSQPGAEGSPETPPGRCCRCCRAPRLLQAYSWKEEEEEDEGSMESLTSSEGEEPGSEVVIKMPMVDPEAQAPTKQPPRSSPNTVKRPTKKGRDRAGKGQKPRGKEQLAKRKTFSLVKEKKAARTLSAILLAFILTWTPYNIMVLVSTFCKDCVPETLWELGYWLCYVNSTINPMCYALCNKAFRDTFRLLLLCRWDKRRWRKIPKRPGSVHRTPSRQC

Prothrombin = Prothrombin (Homo sapiens, UniProt P00734); type: functional
[2] = target: Voltage-gated inwardly rectifying potassium channel KCNH2 (Homo sapiens, UniProt Q12809); type: functional; settings: read-out: AC50
Acetylcholinesterase = Acetylcholinesterase (Homo sapiens, UniProt P22303); type: functional
[3] = target: T2, 5-hydroxytryptamine receptor 1A (Homo sapiens, UniProt P08908); type: functional, cell-based
T2 sequence (P08908 whole entry): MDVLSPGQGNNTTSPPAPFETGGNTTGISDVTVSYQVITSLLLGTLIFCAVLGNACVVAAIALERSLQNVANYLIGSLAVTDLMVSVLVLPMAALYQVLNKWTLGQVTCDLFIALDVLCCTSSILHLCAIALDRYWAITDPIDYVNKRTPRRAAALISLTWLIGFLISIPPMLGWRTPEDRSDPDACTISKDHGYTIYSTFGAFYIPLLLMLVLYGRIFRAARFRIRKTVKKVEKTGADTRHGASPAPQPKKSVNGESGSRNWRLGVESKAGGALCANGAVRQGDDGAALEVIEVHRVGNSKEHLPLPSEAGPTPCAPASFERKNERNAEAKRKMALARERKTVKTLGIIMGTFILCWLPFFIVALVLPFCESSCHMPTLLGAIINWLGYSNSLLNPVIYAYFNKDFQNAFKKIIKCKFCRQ

[4] = target: Neuronal acetylcholine receptor subunit alpha-4 (Homo sapiens, UniProt P43681)
Adenosine receptor A1 = target: T3, Adenosine receptor A1 (Homo sapiens, UniProt P30542)
T3 sequence (P30542 whole entry): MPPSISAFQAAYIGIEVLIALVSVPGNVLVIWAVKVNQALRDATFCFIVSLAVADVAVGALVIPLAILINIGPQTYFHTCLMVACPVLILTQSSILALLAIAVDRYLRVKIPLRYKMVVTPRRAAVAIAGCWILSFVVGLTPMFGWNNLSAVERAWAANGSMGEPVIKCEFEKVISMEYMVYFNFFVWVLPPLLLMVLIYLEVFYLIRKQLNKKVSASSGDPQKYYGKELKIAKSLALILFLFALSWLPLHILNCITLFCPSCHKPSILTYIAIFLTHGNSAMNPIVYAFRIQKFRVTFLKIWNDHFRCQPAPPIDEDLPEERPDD

Vasopressin V1a receptor = Vasopressin V1a receptor (Homo sapiens, UniProt P37288)
[5] = target: T4, Alpha-2C adrenergic receptor (Homo sapiens, UniProt P18825); type: functional
T4 sequence (P18825 whole entry): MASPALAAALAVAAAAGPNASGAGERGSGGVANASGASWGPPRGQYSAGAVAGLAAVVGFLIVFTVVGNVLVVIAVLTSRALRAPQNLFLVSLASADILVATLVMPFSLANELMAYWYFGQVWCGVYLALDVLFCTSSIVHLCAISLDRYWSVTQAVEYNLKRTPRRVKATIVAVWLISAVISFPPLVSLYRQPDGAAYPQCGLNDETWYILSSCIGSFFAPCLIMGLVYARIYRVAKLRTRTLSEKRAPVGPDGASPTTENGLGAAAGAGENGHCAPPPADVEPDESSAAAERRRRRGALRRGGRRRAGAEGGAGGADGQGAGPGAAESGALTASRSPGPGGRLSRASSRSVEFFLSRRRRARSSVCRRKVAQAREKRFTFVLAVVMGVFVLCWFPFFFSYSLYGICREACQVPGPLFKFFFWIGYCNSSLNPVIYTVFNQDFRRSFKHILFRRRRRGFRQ

[6] = target: T1, Muscarinic acetylcholine receptor M1; type: functional
[7] = target: T5, Cholecystokinin receptor type A (Homo sapiens, UniProt P32238)
T5 sequence (P32238 whole entry): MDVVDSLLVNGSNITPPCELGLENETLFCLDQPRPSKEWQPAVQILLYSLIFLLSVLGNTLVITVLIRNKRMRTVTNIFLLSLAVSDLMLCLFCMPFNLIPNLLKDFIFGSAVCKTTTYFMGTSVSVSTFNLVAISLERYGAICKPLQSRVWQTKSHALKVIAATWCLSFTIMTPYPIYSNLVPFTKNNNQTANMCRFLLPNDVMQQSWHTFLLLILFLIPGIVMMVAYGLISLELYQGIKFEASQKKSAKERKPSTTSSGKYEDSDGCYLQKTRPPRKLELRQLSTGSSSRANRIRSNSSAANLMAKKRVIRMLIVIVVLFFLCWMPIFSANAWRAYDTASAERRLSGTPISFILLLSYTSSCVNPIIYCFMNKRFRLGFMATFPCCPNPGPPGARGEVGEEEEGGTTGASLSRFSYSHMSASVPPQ

[8] = target: T6, Neuropeptide Y receptor type 1 (Homo sapiens, UniProt P25929)
T6 sequence (P25929 whole entry): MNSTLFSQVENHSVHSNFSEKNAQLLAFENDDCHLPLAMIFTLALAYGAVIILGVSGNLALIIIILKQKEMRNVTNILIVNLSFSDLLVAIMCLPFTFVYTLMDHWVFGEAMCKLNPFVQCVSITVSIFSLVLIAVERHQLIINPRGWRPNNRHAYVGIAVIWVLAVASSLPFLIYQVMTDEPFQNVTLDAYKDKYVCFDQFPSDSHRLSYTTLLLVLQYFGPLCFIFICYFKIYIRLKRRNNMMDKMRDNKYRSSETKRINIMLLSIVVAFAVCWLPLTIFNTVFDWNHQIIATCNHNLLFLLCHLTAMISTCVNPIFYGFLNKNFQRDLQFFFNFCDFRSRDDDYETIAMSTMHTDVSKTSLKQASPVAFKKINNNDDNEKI
Note: assay procedure not described here.

Chain of Vasopressin V1a receptor (P37288 whole entry): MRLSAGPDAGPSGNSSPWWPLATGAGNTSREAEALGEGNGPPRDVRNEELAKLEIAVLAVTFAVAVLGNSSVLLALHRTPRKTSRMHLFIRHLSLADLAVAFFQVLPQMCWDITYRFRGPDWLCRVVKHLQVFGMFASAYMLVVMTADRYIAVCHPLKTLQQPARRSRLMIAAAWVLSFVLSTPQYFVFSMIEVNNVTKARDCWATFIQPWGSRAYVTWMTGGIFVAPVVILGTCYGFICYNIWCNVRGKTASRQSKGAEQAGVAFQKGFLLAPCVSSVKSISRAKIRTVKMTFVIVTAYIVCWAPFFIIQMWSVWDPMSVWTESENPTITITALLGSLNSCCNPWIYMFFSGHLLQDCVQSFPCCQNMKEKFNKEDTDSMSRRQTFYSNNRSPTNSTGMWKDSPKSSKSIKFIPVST
Chain of Neuronal acetylcholine receptor subunit alpha-4 (P43681 whole entry): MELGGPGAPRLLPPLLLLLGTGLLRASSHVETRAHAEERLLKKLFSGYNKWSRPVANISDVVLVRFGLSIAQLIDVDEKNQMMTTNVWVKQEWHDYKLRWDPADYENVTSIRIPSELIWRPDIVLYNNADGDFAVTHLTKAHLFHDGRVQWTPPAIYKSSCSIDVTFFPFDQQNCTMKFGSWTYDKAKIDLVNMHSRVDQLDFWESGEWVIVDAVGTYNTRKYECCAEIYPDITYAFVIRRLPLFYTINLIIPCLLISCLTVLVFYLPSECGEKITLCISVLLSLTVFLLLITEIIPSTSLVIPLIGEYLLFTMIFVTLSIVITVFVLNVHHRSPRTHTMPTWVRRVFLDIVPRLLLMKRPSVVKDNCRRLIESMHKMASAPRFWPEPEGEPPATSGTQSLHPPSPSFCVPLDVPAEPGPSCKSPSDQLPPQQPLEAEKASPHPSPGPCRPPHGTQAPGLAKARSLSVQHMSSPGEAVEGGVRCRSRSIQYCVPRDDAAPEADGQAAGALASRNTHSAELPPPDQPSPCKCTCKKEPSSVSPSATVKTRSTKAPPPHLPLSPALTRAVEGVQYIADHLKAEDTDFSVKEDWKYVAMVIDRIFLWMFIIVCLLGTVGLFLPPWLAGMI
Chain of Acetylcholinesterase (P22303 whole entry): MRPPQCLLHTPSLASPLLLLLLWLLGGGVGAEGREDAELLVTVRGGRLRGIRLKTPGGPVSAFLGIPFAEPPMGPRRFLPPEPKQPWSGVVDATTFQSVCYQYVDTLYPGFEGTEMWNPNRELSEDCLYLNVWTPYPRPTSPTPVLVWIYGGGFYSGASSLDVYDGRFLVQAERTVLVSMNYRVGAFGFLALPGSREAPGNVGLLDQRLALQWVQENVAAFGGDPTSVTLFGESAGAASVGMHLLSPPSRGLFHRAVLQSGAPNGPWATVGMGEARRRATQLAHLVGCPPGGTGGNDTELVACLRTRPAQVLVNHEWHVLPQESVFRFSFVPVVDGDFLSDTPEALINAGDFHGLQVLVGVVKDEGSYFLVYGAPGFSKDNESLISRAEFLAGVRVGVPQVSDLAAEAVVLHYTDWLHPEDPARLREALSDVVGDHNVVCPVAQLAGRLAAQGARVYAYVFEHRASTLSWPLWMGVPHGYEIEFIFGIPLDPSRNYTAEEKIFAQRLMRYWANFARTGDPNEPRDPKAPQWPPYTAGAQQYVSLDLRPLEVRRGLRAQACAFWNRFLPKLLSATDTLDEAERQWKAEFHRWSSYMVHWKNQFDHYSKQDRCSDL
Chain of Voltage-gated inwardly rectifying potassium channel KCNH2 (Q12809 whole entry): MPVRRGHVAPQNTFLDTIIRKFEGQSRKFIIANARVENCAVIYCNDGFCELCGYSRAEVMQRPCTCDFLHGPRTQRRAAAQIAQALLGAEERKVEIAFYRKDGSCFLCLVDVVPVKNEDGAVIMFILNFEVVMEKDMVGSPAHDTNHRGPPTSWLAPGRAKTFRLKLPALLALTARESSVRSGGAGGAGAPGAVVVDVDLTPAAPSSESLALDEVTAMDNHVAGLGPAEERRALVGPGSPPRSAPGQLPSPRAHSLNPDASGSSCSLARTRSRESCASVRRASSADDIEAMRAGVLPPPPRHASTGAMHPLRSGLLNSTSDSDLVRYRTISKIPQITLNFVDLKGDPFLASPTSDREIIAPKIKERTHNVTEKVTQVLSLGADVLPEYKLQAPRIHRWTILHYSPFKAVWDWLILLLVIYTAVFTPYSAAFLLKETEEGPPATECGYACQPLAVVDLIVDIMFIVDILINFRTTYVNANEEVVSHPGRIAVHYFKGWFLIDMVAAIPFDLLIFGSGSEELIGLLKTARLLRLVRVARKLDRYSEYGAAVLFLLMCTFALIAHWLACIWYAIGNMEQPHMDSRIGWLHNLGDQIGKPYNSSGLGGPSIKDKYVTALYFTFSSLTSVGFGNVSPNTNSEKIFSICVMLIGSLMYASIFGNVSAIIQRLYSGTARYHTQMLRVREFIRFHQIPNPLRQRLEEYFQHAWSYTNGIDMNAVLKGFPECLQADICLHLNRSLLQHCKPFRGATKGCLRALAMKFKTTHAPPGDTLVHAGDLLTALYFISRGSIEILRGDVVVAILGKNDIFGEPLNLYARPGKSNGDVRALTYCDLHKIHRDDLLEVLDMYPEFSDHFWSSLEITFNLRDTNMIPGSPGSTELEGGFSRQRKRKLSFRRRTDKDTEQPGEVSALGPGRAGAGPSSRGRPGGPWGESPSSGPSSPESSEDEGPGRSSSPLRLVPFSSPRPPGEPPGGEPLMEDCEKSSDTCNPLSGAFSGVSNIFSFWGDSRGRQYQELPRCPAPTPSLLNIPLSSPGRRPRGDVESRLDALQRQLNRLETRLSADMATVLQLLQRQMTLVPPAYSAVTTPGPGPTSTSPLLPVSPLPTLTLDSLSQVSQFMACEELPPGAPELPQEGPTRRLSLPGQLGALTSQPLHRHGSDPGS

Structure (SMILES) | AC50 [1] | AC50 (Prothrombin) | AC50 [2] | AC50 (Acetylcholinesterase) | AC50 [3] | AC50 [4] | AC50 (Adenosine receptor A1) | AC50 (Vasopressin V1a receptor) | AC50 [5] | AC50 [6] | AC50 [7] | AC50 [8]
CN(C)S(=O)(=O)c1ccc2c(c1)N(CCCN1CCC(CCO)CC1)c1ccccc1S2 [PIPOTIAZINE] | 7.84 µM | > 30 µM | 0.39 µM | > 30 µM |  |  |  |  |  |  |  | 
COCCCN1CCC(NC(=O)c2cc(Cl)c(N)c3c2OCC3)CC1 [PRUCALOPRIDE] | > 30 µM | > 30 µM | > 30 µM | 26.7 µM | > 30 µM | > 30 µM | > 30 µM | > 30 µM | 14 µM | > 30 µM | > 30 µM | 
O=C(CCNNC(=O)c1ccncc1)NCc1ccccc1 [NIALAMIDE] | > 30 µM | > 30 µM | > 30 µM | > 30 µM |  |  |  |  |  |  |  | 
CC(=O)N[C@@H]1[C@@H](O)[C@H](O)[C@@H](CO)O[C@H]1O [N-ACETYLGLUCOSAMINE] | > 30 µM | > 30 µM | > 30 µM | > 30 µM |  |  |  |  |  |  |  | 
CC[C@H]1[C@@H](O)[C@@H]2[C@H](CC[C@]3(C)[C@@H]([C@H](C)CCC(=O)O)CC[C@@H]23)[C@@]2(C)CC[C@@H](O)C[C@@H]12 [OBETICHOLIC ACID] | > 30 µM | > 30 µM | > 30 µM | > 30 µM | > 30 µM | > 30 µM | > 30 µM | > 30 µM | > 30 µM | > 30 µM | > 30 µM | > 30 µM
COC(c1ccccc1)(c1ccccc1)[C@H](Oc1nc(C)cc(C)n1)C(=O)O [AMBRISENTAN] | > 30 µM | > 30 µM | > 30 µM | > 30 µM |  |  |  |  |  |  |  | 
CC1(C)NC(=O)N(c2ccc([N+](=O)[O-])c(C(F)(F)F)c2)C1=O [NILUTAMIDE] | > 3 µM | > 30 µM | > 30 µM | > 30 µM | > 30 µM | > 30 µM | > 30 µM | > 30 µM | > 30 µM | > 30 µM | > 30 µM | > 30 µM
C=CCc1ccccc1OCC(O)CNC(C)C (centres undefined) [ALPRENOLOL] | > 0.3 µM | > 0.3 µM | 9.1 µM | > 0.3 µM | > 30 µM | > 30 µM | > 30 µM | > 30 µM | 14.4 µM | > 30 µM | > 30 µM | > 30 µM
N[C@H](C(=O)O)[C@H](O)c1ccc(O)c(O)c1 [DROXIDOPA] | > 30 µM | > 30 µM | > 30 µM | > 30 µM |  |  |  |  |  |  |  | 
CCOC(=O)[C@H](CCc1ccccc1)N[C@@H](C)C(=O)N1[C@H](C(=O)O)C[C@H]2CCCC[C@@H]21 [TRANDOLAPRIL] | > 30 µM | > 30 µM | > 30 µM | > 30 µM |  |  |  |  |  |  |  | 
O=C(Cc1ccc(-c2ccccc2)cc1)Nc1ccccn1 [DIFENPIRAMIDE] | > 10 µM | > 30 µM | > 30 µM | > 30 µM | > 30 µM |  |  |  | > 30 µM | > 30 µM |  | 
CC(C)Nc1ncccn1 [ISAXONINE] | > 30 µM | > 30 µM | > 30 µM | > 30 µM |  |  |  |  |  |  |  | 
OCCN1C[C@H](O)[C@@H](O)[C@H](O)[C@H]1CO [MIGLITOL] | > 30 µM | > 30 µM | > 30 µM | > 30 µM |  |  |  |  |  |  |  | 
Oc1c(Cl)cc(Cl)c2cccnc12 [CHLOROXINE] | > 30 µM | > 30 µM | > 30 µM | > 30 µM |  |  |  |  |  |  |  | 
O=C(OCC(O)CO)c1ccccc1Nc1ccnc2cc(Cl)ccc12 (centres undefined) [GLAFENINE] | 7.51 µM | > 30 µM | 1.4 µM | > 30 µM | > 30 µM | > 30 µM | > 30 µM | > 30 µM | > 30 µM | > 30 µM | > 30 µM | 
Cc1cc(C#N)cc(C)c1Oc1nc(Nc2ccc(C#N)cc2)nc(N)c1Br [ETRAVIRINE] | 2.71 µM | > 30 µM |  | > 30 µM |  |  |  |  |  |  |  | 
CN(C)CCn1nnnc1SCC1=C(C(=O)O)N2C(=O)[C@@H](NC(=O)Cc3csc(N)n3)[C@H]2SC1 [CEFOTIAM] | > 30 µM | > 30 µM |  | > 30 µM |  |  |  |  |  |  |  | 
CN(C)[C@@H](c1cccc(O)c1)[C@H]1CCCC[C@H]1O [CIRAMADOL] | > 30 µM | > 30 µM | > 30 µM | > 30 µM |  |  |  |  |  |  |  | 
CN(C)CCN1C(=O)c2ccccc2N(C)c2ccccc21 [DIBENZEPIN] | > 30 µM | > 30 µM | > 30 µM | > 30 µM |  |  |  |  |  |  |  | 
N[C@@H](C(=O)N[C@@H]1C(=O)N2C(C(=O)O)=C(Cl)CC[C@H]12)c1ccccc1 [LORACARBEF ANHYDROUS] | > 30 µM | > 30 µM |  | > 30 µM |  |  |  |  |  |  |  | 
CN(C)CC(c1ccc(O)cc1)C1(O)CCCCC1 (centres undefined) [DESVENLAFAXINE] | > 30 µM | > 30 µM | > 30 µM | > 30 µM |  |  |  |  |  |  |  | 
CC(C)(C)NC[C@H](O)COc1ccccc1C1CCCC1 [PENBUTOLOL] | 13.5 µM | > 30 µM | 11 µM | > 30 µM |  |  |  |  |  |  |  | 
CC[N+]1(C)[C@@H]2CC(OC(=O)[C@H](CO)c3ccccc3)C[C@H]1[C@@H]1O[C@@H]12 (some centres undefined) [OXITROPIUM] | 0.003 µM | > 30 µM | > 30 µM | > 30 µM |  |  |  |  |  |  |  | 
O=C(O)c1cc(O)ccc1O [GENTISIC ACID] | > 30 µM | > 30 µM | > 30 µM | > 30 µM |  |  |  |  |  |  |  | 
